From patent US20260014173A1, “Nutritional composition for stroke” (N.V. Nutricia, priority 2022, published 2026)

Assays:
[1] = system: PC12 pheochromocytoma cells; experiment: Neurite outgrowth in in vitro PC12 neuronal cell model (NGF, no hypoxia), Examples 5 and 6; type: cell-based; settings: total concentration of 20 μM choline from chol-CI, PC or both, control set at 100%
Method: The effects of nutrient supplementation on neurite outgrowth parameters in PC12 pheochromocytoma cells was also assessed.
PC12 pheochromocytoma cells were grown in DMEM (Gibco), supplemented with 10% fetal bovine serum (FBS), penicillin (100 units/ml), and streptomycin (100 μg/ml) (Gibco), under a humidified atmosphere with 95% air and 5% CO2 at 37° C. Cells were seeded in collagen (0.01 mg/ml) coated 96 well plates at a density of 5000 cells/well and after 24 hours supplemented with medium containing 20 ng/ml nerve growth factor (NGF) with or without coenzyme Q10 (1 μM), vitamin D3 ((0.25 μM), vitamin B2 (0.5 μM), DHA (6.7 μM), a source of choline (20 μM phosphatidylcholine, PC) or a mixture thereof.
In the PC12 experiments the cells were not exposed to hypoxia.
Docosahexaenoic acid (DHA) was resuspended in absolute ethanol and diluted 5 times in fetal bovine serum. All compounds were purchased from Sigma (Zwijndrecht, The Netherlands).
Supplementation of cells was performed in 6-fold in 96 wells plates. These conditions were compared to non-supplemented cells. After supplementation for 48 hours with these combinations, cells were stained using Calcein-AM stain (2 ng/μl) and the nuclei were counterstained using Hoechst stain (0.6 μg/ml), in 100 μl culture medium per well and incubated for 20 min at 37° C. Subsequently, FITC and DAPI images (9 images per well for 96 wells plate) were taken using an ImageXpress high content imaging system. Neurite length was quantified using the neurite outgrowth module in MetaXpress.
Nutrients were supplemented alone (100% chol-CI or 100% PC) and in a ratio of 60:40 and 40:60 of chol-CI to PC. Supplementation of cells was performed in 6-fold in 96 wells plates at a total concentration of 20 μM choline, derived from chol-CI, from PC, or from both. The neurite outgrowth in these conditions were compared to non-supplemented PC12 cells.

[2] = system: Mouse primary cortical neurons (E14); experiment: Neurite outgrowth after hypoxia (oxygen glucose deprivation), cortical neuronal cultures, Example 3; type: cell-based; settings: OGD 3.5 hrs; vitamin D3 30 nM, co-enzyme Q10 3 μM, vitamin B2 30 nM, alone or combined; supplemented immediately after OGD for 24 hrs; control set at 100%
Method: Mouse primary cortical neurons (E14) were seeded onto 96-well plates coated with poly-D-lysine. Cells (20.000 cells/well) were cultured in modified Neurobasal medium (containing B27, Pen/Strep, and GlutaMAX). Cell cultures were incubated at 37° C. in 5% CO2 and medium was replaced every 2-3 days. At day 2 of in vitro culturing, cells underwent oxygen glucose deprivation (OGD) for 3.5 hrs. In order to induce glucose deprivation, modified Neurobasal medium was replaced with an equivalent volume of HBSS. For hypoxia, cells were placed in a humidity-controlled incubator (Whitley H35 Hypoxystation) set to 0.5% O2, 94.5% N2 and 5% CO2 at 37° C. for 3.5 hrs. After the hypoxic incubation period, HBSS was removed and replaced with modified Neurobasal medium, and plates returned to normoxic conditions and incubated at 37° C. in 5% CO2 for an additional 24 hrs. […] Nutrients were supplemented either alone, in combination of two, or in combination of three, starting immediately after the OGD and lasting for another 24 hrs. Every condition was tested in triplicate. […] At the end of the experiment, plates were fixed PFA for 5 min at room temperature. Then, cells were permeabilized and blocked using PBS containing 10% normal goat serum, 0.1% sodium azide and 0.2% Triton X-100. Cells were stained overnight with a monoclonal anti-beta-tubulin III antibody (Sigma Aldrich, T8578). Next, cells were stained with the secondary antibody Alexa Fluor 488 Goat anti-Mouse IgG (H+L) (Invitrogen A11001 Fisher, 10256302). Nuclei were stained with Hoechst 33342 (Thermofisher, H3570). Images were taken at a magnification of 20× in 12 fields of view using In Cell Analyser 2000.

Compound | neurite outgrowth compared to unsupplemented control PC12 cells [1] | neurite outgrowth after hypoxia relative to control [2] | neurite outgrowth compared to unsupplemented control PC12 cells ([1]; listed as PC)
C[N+](C)(C)CCO.[Cl-] [100% chol-CI, choline chloride] | improved neurite outgrowth |  | 
COC1=C(OC)C(=O)C(C/C=C(\C)CC/C=C(\C)CC/C=C(\C)CC/C=C(\C)CC/C=C(\C)CC/C=C(\C)CC/C=C(\C)CC/C=C(\C)CC/C=C(\C)CCC=C(C)C)=C(C)C1=O [co-enzyme Q10, 2,3 dimethoxy-5 methyl-6-decaprenyl benzoquinone] |  | did not affect neurite outgrowth | 
Cc1cc2nc3c(=O)[nH]c(=O)nc-3n(C[C@H](O)[C@H](O)[C@H](O)CO)c2cc1C [vitamin B2, riboflavin] |  | did not affect neurite outgrowth | 
C=C1CC[C@H](O)C/C1=C/C=C1\CCC[C@]2(C)[C@@H]([C@H](C)CCCC(C)C)CC[C@@H]12 [vitamin D3, cholecalciferol] |  | did not affect neurite outgrowth | 
phosphatidylcholine [100% PC] | increases neurite outgrowth slightly more than supplementation with 100% chol-CI |  | slightly better effect on neurite outgrowth than choline chloride
